Test results from patent US20100273740A1 (priority 2004, published 2010).
In brackets after ≈: the same amount, converted by molar mass.

Columns and labels:
[1] = Cell viability of uninfected human foreskin fibroblast drug control wells; assay type: cell-based; settings: uninfected human foreskin fibroblast cells; read-out: Cytotoxic Conc. (IC50) Cell Growth
[2] = system: Urbani strain of SARS CoV; test: organism not typed; assay type: cell-based; settings: Vero, read-out: Effective Conc. (EC50) Against SARS CoV
Vero cells = test: cells; assay type: cell-based; settings: Chlorocebus sabaeus, read-out: Inhibitory Conc. (IC50) Cell Growth
SARS = settings: cited from earlier work
[3] = cited from earlier work
SARS-CoV = settings: cited from earlier work

`CCCCCCCCCCOC(CNC(=O)CCCCCCCCC)COP(=O)([O-])OCC[N+](C)(C)C` (stereo not shown) [NHCOC9H19 OC9H18CH3 PC, 3-decanamido-2-decyloxypropyl-1-phosphocholine] gave an IC50 [1] of 75 µg/mL (≈ 136 µM).
`CCCCCCCCCCCC(=O)NCC(COP(=O)([O-])OCC[N+](C)(C)C)OCCCC` (stereo not shown) [NHCOC11H23 OC3H6CH3 PC, 3-dodecanamido-2-butyloxypropyl-1-phosphocholine] showed an EC50 [2] of 3 µg/mL (≈ 6.06 µM) and an IC50 (Vero cells) of 40 µg/mL (≈ 80.9 µM).
In the case of `NC(=O)c1ncn([C@@H]2O[C@H](CO)[C@@H](O)[C@H]2O)n1` [Ribavirin, 1-β-D-ribofuranosyl-1-1,2,4-triazole-3-carboxamide], the “Benefit in SARS patients” value (SARS) is listed as “has not been observed to be of benefit”, the “Patients with serum amino transferase levels reduced to normal” value [3] is listed as 40% and the “Effect on viral serum levels” value ([3]; patients) is listed as “does not lower viral serum levels”.
For interferon beta, the “Activity in vitro against SARS-CoV” value (SARS-CoV) is listed as “effective in vitro against SARS-CoV”.
